The source of these data is patent US8697379B2, “Lysosomotropic inhibitors of acid ceramidase” (MUSC Foundation for Research Development, priority 2008, dated 2014).

One data set deals with L929 cells. Put plainly: TNF-α induced PGE2 release from L929 mouse fibroblast cells. In kind it is cell-based. As to conditions: TNF-α treated L929 mouse fibroblast cells; preliminary data.
Data set [1] has as its target T1, acid ceramidase (ACDase) (Homo sapiens, UniProt Q13510).
T1 sequence (Q13510 22-142 limits assumed): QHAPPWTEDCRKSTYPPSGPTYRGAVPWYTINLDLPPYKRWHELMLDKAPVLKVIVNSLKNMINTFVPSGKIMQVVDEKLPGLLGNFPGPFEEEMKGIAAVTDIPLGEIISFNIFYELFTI
T1 sequence (Q13510 143-395 limits assumed): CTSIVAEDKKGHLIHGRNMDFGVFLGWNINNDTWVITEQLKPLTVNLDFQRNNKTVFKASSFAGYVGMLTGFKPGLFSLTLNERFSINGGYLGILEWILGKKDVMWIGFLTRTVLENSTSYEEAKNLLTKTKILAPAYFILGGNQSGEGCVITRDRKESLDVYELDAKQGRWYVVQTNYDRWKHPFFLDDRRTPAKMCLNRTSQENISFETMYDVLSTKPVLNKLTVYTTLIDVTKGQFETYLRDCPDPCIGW
Put plainly: Cellular activity of ACDase: MCF-7 cells treated with drug, then lysed and assayed. Also on record: C16-Cer as a substrate and MCF-7 cell lysate as an enzymatic source; endogenous in cells; host or cells: MCF-7 cell lysate. As to conditions: 10 μM, 2 h of treatment. In kind it is cell-based. The method, then: (§1) Effects of the inhibitors on the cellular activity of ACDase were determined using cell lysate from the cultured cells previously treated with increasing concentrations of drugs. For this type of assay, the drugs are allowed to enter the cell for a specific time, then cell lysates were prepared by homogenization and assays performed as described above. Effects on endogenous Cers and Sph were determined using LC-MS/MS analysis as previously described. See Bielawska et al., Bioorg. Med. Chem., 16, 1032-1045 (2008); and Bielawska et al., Methods, 39, 82-91 (2006). Final results were expressed as the level of the particular sphingolipid (SPL)/phospholipids (Pi) determined from the Bligh and Dyer lipid extract and expressed as SPLs/Pi (pmol/nmol).

For data set [2], the system named is lysosomes. As to conditions: previously studied non-Class E inhibitor; Bielawska et al. 2008; cited from earlier work.
Data set [3] has as its system MCF-7 breast carcinoma cells. Put plainly: MTT cell viability assay in MCF-7 breast carcinoma cells. The data set is classed as cell-based, human. How it is done:
Class E compounds were administrated to cells capable of undergoing differentiation in amounts effective to induce differentiation of several cancer cell lines: MCF-7, PPC1, SCC14a, A549, and J3DR4. Cell viability assay was performed by the 3-(4,5-Dimethylthiazol-2-yl)-2,5-diphenyltetrazolium bromide (MTT) assay. Cells were seeded into 96-well plate overnight before treatment with increasing drug concentrations (0-100 μM) as previously described. See Hansen et al., J. Immunol. Methods, 119, 203-210 (1989). After treatment, plates were incubated for an additional period of time (24-72 h). Changes in cell numbers were determined and expressed as a percentage of the untreated controls.
Class E prodrugs were administrated to MCF-7 cells capable of undergoing differentiation in amounts effective to induce differentiation. Cell viability assay was performed by the MTT assay. Cells were seeded into 96-well plate overnight before treatment with increasing drug concentrations (0-100 μM) as previously described. See Hansen et al., J. Immunol. Methods, 119, 203-210 (1989). After treatment, plates were incubated for an additional period of time (24-72 h). Changes in cell numbers were determined and expressed as a percentage of the untreated controls. 50% inhibitory concentrations were determined by comparing cell number changes in prodrug treated samples to control samples.
(Formazan colour is commonly taken as a measure of viable cells.)

For data set [4], the target named is T1, acid ceramidase (ACDase). Description: In vitro ACDase activity assay, release of radioactive palmitic acid from [3H]C16-Cer in MCF-7 cell lysate. The data set is classed as biochemical. Details: C16-Cer as a substrate and MCF-7 cell lysate as an enzymatic source; endogenous in cells; host or cells: MCF-7 cell lysate. The method, then: The in vitro assay was carried out according to a previously described procedure (see Zeidan et al., J. Biol. Chem., 281, 24695-24703 (2006)) using [^3H] C16-Cer as a substrate and MCF-7 cell lysate as an enzymatic source. Briefly, cell lysate was prepared under acidic conditions (i.e., pH 4.5, 50 mM sodium acetate, 5 mM magnesium chloride, 1 mM EDTA and 0.5% Triton X-100), and protein level was determined using BCA protein assay kit (Pierce, Rockford, Ill., United States of America). ACDase activity was determined based on the amount of the released radioactive palmitic acid counted by LS 6500 multi-purpose scintillation counter (Beckman Coulter, Inc., Fullerton, Calif., United States of America). The results are presented as percentage of control.

Data set [5] relates to cellular sphingolipids (Cn-Cer, Sph, S1P) in MCF-7 cells. Put plainly: Endogenous ceramide, Sph and S1P levels in MCF-7 cells by LC-MS/MS. In kind it is cell-based, human. The method, then: as §1
Data set [6] has as its system lysosomes. Description: Lysosomal stability by FACS analysis with LYSOTRACKER red. As to conditions: for lysosomal stability: 30 μM. In kind it is cell-based. How it is done: Effects of Class E inhibitors on ACDase protein degradation were determined by Western blotting as previously described. See Bielawska et al., Bioorg. Med. Chem., 16, 1032-1045 (2008); Liu et al., Front. Biosci., 13, 2293-2298 (2008); and Holman et al., Cancer Chemother. Pharmacol., 61, 231-242 (2008). Lysosomal stability and mitochondrial stability were determined by FACS analysis using LYSOTRACKER™ red (Molecular Probes, Eugene, Oreg., United States of America) or JC-1 mitochondrial dye (Molecular Probes, Eugene, Oreg., United States of America) as previously described. See Holman et al., Cancer. Chemother. Pharmacol., 61, 231-242 (2008).
Background: In flow cytometry, cells or beads pass a laser one at a time.

The subject of another data set is Caspase 3/7. Put plainly: Apo-ONE Homogeneous Caspase 3/7 assay in MCF-7 cells. In kind it is cell-based, human. As to conditions: 24 h incubation. How it is done:
The apoptotic effect of LCL464 was also investigated in MCF-7 cells via its effect on Caspase 3/7, a group of cysteine proteases that mediate execution. This can be activated by apoptotic signals from both death receptor and intracellular/mitochondrial pathways. Briefly, MCF-7 cells were seeded at a density of 5×10^3/50 μL/well overnight in 96 well plates. Then cells were treated with vehicle or diluted LCL464. After 8 and 24 hours incubation, Caspase 3/7 activities were measured using the Apo-ONE Homogeneous Caspase 3/7 Assay Kit according to the manufacturer's instructions (Promega, Madison, Wis., United States of America). LCL464 causes a dose dependent induction of apoptosis following 24 h incubation, causing increase of Caspase 3/7 activities to 140% and 200% for 10 μM and 20 μM, respectively.

Data set [7] in a line: Breakdown of prodrugs under the assay conditions. The data set is classed as in vitro ADME. As to conditions: under the various assay conditions; preliminary.
Where [8] appears, read: 48 hours of treatment, Example 6, read-out: IC50, MCF-7 cell growth (50% of surviving cells as compared to the control).
The mark [9] stands for this setting: MCF-7 cells, MTT, 24 hours, Example 7, hydrochloride, read-out: IC50/24 h.
Where [10] appears, read: 10 μM, 5 hours, and time course.

Each structure is given as a SMILES string. Several values for one entry are separate records, joined by “and”; a condition that tells them apart may be missing. Equal entries are not always repeated. Where two headings read alike, the source gives them in different places. Where only a bound is given, the exact number is not on record here.

Take `CCCCCCCCCCCCCC(=O)N[C@H](C)[C@@H](O)c1ccccc1` [D-MAPP, D-erythro-2-(N-myristolyamino)-1-phenyl-1-propanol]: the “release of PGE2” value in the data set on L929 cells is “inhibited”.
For `CCCCCCCCCCCCCCN[C@H](CO)[C@H](O)c1ccc([N+](=O)[O-])cc1` [LCL204, (1R,2R)-2-N-(tetradecylamino)-1-(4′-nitrophenyl)-1,3-propandiol], the “ACDase inhibition at the cellular level” value at acid ceramidase (ACDase) [1] is listed as “about 35%”. Moreover, in the data set on lysosomes [2], the “lysosomal stability as compared to the control (permanent destabilization)” value is on record as around 90%.
As for `O=C(CCCCCCCCCCCN1CCOCC1)N[C@H](CO)[C@H](O)c1ccc([N+](=O)[O-])cc1` [LCL449, (1R,2R)-2-[N-(12′-{1″-morpholine}-dodecanoyl)-amino]-1-(4″-nitrophenyl)-1,3-propandiol], the IC50 in data set [3] (setting [8]) turned out to be 49.9 µM.
Regarding `CN(C)CCCCCCCCCCCC(=O)N[C@H](CO)[C@H](O)c1ccc([N+](=O)[O-])cc1` [LCL464, (1R,2R)-2-[N-(12′-N,N-dimethylamino-dodecanoyl)-amino]-1-(4″-nitrophenyl)-1,3-propandiol], the IC50 in data set [3] (setting [8]) amounted to 10.2 µM; in [3] (72 hr treatment, Example 6, read-out: IC50, MCF-7 cell growth), 7.2 µM. Besides, the “ACDase inhibition at the cellular level” value on acid ceramidase (ACDase) [1] amounted to 65%. In addition, on acid ceramidase (ACDase) [4] (50 μM inhibitor, [3H]C16-Cer substrate), the “inhibition of ACDase in vitro” value amounted to 55%. The “level of C18-Cer, % of control” value in data set [5] (50 μM, at 24 hours) is reported as around 900%. Also, in [5] (50 μM, early effect), the “level of C16-Cer (percentage of control)” value was around 240%. The “concentration at which elevation of C18-Cer was observed” value in data set [5] (24 hours, dose range 0-50 μM) is listed as “above 20 μM”. Besides, the “lysosomal dysfunction (LYSOTRACKER Red fluorescence)” value in the data set with lysosomes [6] (10 μM, 1 and 5 hours of treatment) was “did not cause lysosomal dysfunction”. Besides, the lysosomal stability is listed as 40% with lysosomes [6] (1 h), 61% in the data set with lysosomes [6] (5 h) and above 100% with lysosomes [6] (24 h). Moreover, the results for the “Caspase 3/7 activities (percentage of control)” value in the data set with Caspase 3/7 (10 μM) and with Caspase 3/7 (20 μM) were 140% and 200%, respectively.
Take `CCCCCCCCCCCCCC(=O)N[C@H](COC(=O)CN(C)C)[C@H](OC(=O)CN(C)C)c1ccc([N+](=O)[O-])cc1.Cl` [LCL521, (1R,2R)-2-[N-tetradecanoyl)-amino]-1-(4″-nitrophenyl)-1,3-propandiol-1,3-O-bis-dimethylglycine hydrochloride]: the IC50 was ~8.9 µM and 8.9 µM in data set [3] (setting [9]); 8.67 µM in data set [3] (MCF-7 cells, MTT, 48 hours, Example 7, read-out: IC50/48 h); 7.45 µM in data set [3] (MCF-7 cells, MTT, 72 hours, Example 7, read-out: IC50/72 h).
With `CCCCCCCCCCCCCC(=O)N[C@H](COC(=O)CN(C)C)[C@H](OC(=O)CN(C)C)c1ccc([N+](=O)[O-])cc1.Cl` [LCL521], the “effect on acid ceramidase activity in vitro” value at acid ceramidase (ACDase) [4] (concentration dependent (FIG. 13)) is listed as “inhibited acid ceramidase in vitro”. Besides, the “breakdown / metabolism of the prodrug” value in data set [7] is “slowly metabolized to the mono-ester LCL581 and B13”. In [5] (setting [10]), the “cellular level of Sph and S1P” value is on record as “decreased”; the “levels of pro-apoptotic C16- and C18-Cer and total ceramide” value is listed as “increased”. For the same compound, the “delivery to the lysosomes (LYSOTRACKER Red fluorescence)” value in the data set with lysosomes [6] (5 μM or 10 μM, 1 hour) is recorded as “appears to be delivered to the lysosomes”.
As for `CCCCCCCCCCCCCC(=O)N[C@H](CO)[C@H](OC(=O)CN(C)C)c1ccc([N+](=O)[O-])cc1.Cl` [LCL522, (1R,2R)-2-[N-tetradecanoyl)-amino]-1-(4″-nitrophenyl)-1,3-propandiol-1-O-dimethylglycine hydrochloride], the IC50 in [3] (setting [9]) was ~6.5 µM and 6.5 µM.
For the compound `CCCCCCCCCCCCCC(=O)N[C@H](CO)[C@H](OC(=O)CN(C)C)c1ccc([N+](=O)[O-])cc1.Cl` [LCL522], the “breakdown / metabolism of the prodrug” value in [7] is reported as “breaks down under the various assay conditions to form B13”. In addition, the “regulation of cellular sphingolipids” value in data set [5] (10 μM, 5 hours) is “behaved similarly to B13”.
